Columns and labels:
myostatin promoter = test: Myostatin promoter activity, dual luciferase assay in C2C12 cells transfected with pGL4.15-MSTN; assay type: cell-based, mouse; conditions: for promoter activity of myostatin: C2C12, medium without L-leucine; for myostatin promoter activity reduced by: 1 mM, C2C12 cells, medium without L-leucine, after one day
Method: After seeding 1×10^5 cells of mouse skeletal muscle cells C2C12 (ATCC, US) in a 12-well culture plate, on the next day, pGL4.15 empty vector and pGL4.15-MSTN vector containing myostatin promoter were transfected using Lipofectamine 2000 for 4 hours. After 4 hours, the complete medium (0.8 mM L-leucine) and the medium without L-leucine were treated with D-leucine or DL-leucine at concentrations of 0.001 mM, 0.01 mM, 0.1 mM, and 1 mM, respectively. After one day, a dual luciferase assay kit (Promega Inc.) was used to measure the promoter activity of myostatin.
In the same manner as the experiment to examine the inhibitory effect of a myostatin promoter activity by D-leucine or DL-leucine, D-alanine was treated at concentrations of 0.01 mM, 0.1 mM, 1 mM, and 10 mM in a medium without L-leucine, and a dual luciferase assay kit (Promega Inc.) was used to measure the promoter activity of myostatin.
In the same manner as in the experiment to examine the inhibitory effect of a myostatin promoter activity by D-leucine or DL-leucine, and D-alanine, D-proline was treated at concentrations of 0.001 mM, 0.01 mM, 0.1 mM, and 1 mM in a medium without L-leucine, and a dual luciferase assay kit (Promega Inc.) was used to measure the promoter activity of myostatin.
In the same manner as the myostatin promoter activity experimental method performed in Example 1 above, D-phenylalanine (0.001-0.1 mM), D-serine (0.001-0.1 mM), D-tyrosine (0.0001-0.01 mM), D-asparagine monohydrate (0.001-0.1 mM), D-aspartic acid (0.0001-0.01 mM), D-methionine (0.001-0.1 mM), D-cysteine hydrochloride monohydrate (0.001-0.1 mM), D-glutamic acid (0.0001-0.01 mM), D-arginine (0.001-0.1 mM), and D-tryptophan (0.001-0.1 mM) were treated, respectively. The myostatin mRNA expression level was identified using qRT-PCR, and the myostatin mRNA expression value was corrected using the expression value of beta-actin.

myostatin mRNA = test: Myostatin mRNA expression by qRT-PCR in C2C12 cells, corrected with beta-actin; assay type: cell-based, mouse; conditions: C2C12, medium without L-leucine
Method: After seeding mouse skeletal muscle cells C2C12 (ATCC, US) 3×10^5 cells in a 6-well culture plate, on the next day, D-leucine was treated at concentrations of 0.01 mM, 0.1 mM, and 1 mM in a complete medium (0.8 mM L-leucine) and a medium without L-leucine. […]

SMILES: C[C@@H](N)C(=O)O [D-alanine]
- promoter activity of myostatin (myostatin promoter; D-alanine at 0.01 mM or more (0.01-10 mM tested), 12 hours (FIG. 6)): decreased
- mRNA expression level of myostatin (myostatin mRNA; D-alanine at 0.001 mM or more (0.001-1 mM tested), 12 hours (FIG. 7)): decreased

SMILES: CC(C)CC(N)C(=O)O (racemic) [DL-leucine]
- myostatin promoter activity reduced by (myostatin promoter): 41%

SMILES: CC(C)C[C@@H](N)C(=O)O [D-leucine]
- myostatin promoter activity reduced by (myostatin promoter): 54%
- expression of myostatin mRNA (myostatin mRNA; D-leucine 0.01, 0.1 and 1 mM, after one day): decreased in a dose-dependent manner

SMILES: O=C(O)[C@H]1CCCN1 [D-proline]
- promoter activity of myostatin (myostatin promoter; D-proline at 0.001 mM or more (0.001-1 mM tested), 24 hours (FIG. 8)): decreased
- mRNA expression level of myostatin (myostatin mRNA; D-proline at 0.1 mM or more (0.1 and 1 mM tested), 24 hours (FIG. 9)): decreased

Source: patent US20220331290A1, “PHARMACEUTICAL COMPOSITION FOR PREVENTING OR TREATING SARCOPENIA, CONTAINING UNNATURAL AMINO ACID” (MYO-TEC-SCI, priority 2019, published 2022)
